# Assay: Solubility of the compound in water
# Type: physicochemical
# Conditions: room temperature (25° C.)
# Experimental: 23.5 g of perfluoro(3-dibutylaminopropionic acid) was neutralized with 1.5 g of calcium hydroxide in a methanol/water mixed solution. The precipitated crystals were separated by filtration, and dried at 100° C., whereby 23.5 g of perfluoro(3-dibutylaminopropionic acid) calcium represented by the following Formula (378) was obtained (yield of 97%). The solubility of the present compound in water at room temperature (25° C.) was 2 [g/100 g-H2O].
smiles,measurement,value
"O=C(O)C(F)(F)C(F)(F)N(C(F)(F)C(F)(F)C(F)(F)C(F)(F)F)C(F)(F)C(F)(F)C(F)(F)C(F)(F)F.[Ca] [Synthesis Example 3, perfluoro(3-dibutylaminopropionic acid) calcium]",solubility of the present compound in water,2 g/100 g-H2O
